The target of experiment [1] is T1, Histone deacetylase 1 (Homo sapiens, UniProt Q13547). The experiment in a line: Inhibition of human HDAC1 using human HeLa cell nuclear extract at 1 uM measured after 60 mins by fluorescence assay. In kind it is subcellular, Nucleus.
The target of experiment [2] is T2, Histone deacetylase 2 (Homo sapiens, UniProt Q92769). The experiment in a line: Inhibition of human HDAC2 using human HeLa cell nuclear extract at 1 uM measured after 60 mins by fluorescence assay. In kind it is subcellular, Nucleus.
T2 sequence (Q92769 whole entry): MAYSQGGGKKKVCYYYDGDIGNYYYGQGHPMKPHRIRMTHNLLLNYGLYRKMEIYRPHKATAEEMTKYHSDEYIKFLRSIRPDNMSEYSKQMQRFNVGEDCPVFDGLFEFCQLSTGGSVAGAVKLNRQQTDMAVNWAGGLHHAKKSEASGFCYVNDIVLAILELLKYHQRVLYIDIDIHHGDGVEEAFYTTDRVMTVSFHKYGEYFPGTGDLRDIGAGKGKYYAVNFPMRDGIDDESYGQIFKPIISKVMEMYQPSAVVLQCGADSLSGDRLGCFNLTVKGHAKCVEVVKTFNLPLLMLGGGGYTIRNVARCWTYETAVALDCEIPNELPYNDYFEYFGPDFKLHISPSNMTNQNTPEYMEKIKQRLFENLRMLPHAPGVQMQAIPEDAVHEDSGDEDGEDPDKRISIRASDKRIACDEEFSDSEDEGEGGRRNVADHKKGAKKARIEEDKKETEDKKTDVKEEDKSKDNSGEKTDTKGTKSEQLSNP
The target in experiment [3] is T3, Histone deacetylase 3 (Homo sapiens, UniProt O15379). The experiment in a line: Inhibition of human HDAC3 using human HeLa cell nuclear extract at 1 uM measured after 60 mins by fluorescence assay. It is filed as subcellular, Nucleus.
T3 sequence (O15379 whole entry): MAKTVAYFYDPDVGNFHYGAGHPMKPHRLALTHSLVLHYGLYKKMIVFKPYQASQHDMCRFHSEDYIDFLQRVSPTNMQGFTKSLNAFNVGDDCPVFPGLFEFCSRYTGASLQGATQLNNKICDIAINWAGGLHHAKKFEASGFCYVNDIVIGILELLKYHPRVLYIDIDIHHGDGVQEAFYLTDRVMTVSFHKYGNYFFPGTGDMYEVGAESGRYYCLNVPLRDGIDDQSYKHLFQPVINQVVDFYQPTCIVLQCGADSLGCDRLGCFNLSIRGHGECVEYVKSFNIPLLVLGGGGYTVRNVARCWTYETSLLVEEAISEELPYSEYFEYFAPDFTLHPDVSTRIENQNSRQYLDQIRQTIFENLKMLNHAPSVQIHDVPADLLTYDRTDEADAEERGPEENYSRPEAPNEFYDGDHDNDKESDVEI
For another experiment, the target named is Histone deacetylase. In words: Inhibition of human HDAC using human HeLa cell nuclear extract measured after 60 mins by fluorescence assay. It is filed as subcellular, Nucleus.
For experiment [4], the target named is T1, Histone deacetylase 1. The experiment in a line: Inhibition of human HDAC1 using fluorogenic as substrate measured after 30 mins by fluorescence based analysis.
Experiment [5] concerns the target T3, Histone deacetylase 3. The experiment in a line: Inhibition of human HDAC3 using fluorogenic as substrate measured after 30 mins by fluorescence based analysis.
Experiment [6] has as its target T1, Histone deacetylase 1. The experiment in a line: Inhibition of HDAC1 (unknown origin) using acetylated 7-amino-4-methylcoumarin (AMC) as peptide substrate measured after 20 mins by fluorescence based analysis.
The target in experiment [7] is T2, Histone deacetylase 2. The experiment in a line: Inhibition of HDAC2 (unknown origin) using acetylated 7-amino-4-methylcoumarin (AMC) as peptide substrate measured after 20 mins by fluorescence based analysis.
The target of experiment [8] is T3, Histone deacetylase 3. The experiment in a line: Inhibition of HDAC3 (unknown origin) using acetylated 7-amino-4-methylcoumarin (AMC) as peptide substrate measured after 20 mins by fluorescence based analysis.
Experiment [9] concerns the target T1, Histone deacetylase 1. The experiment in a line: Inhibition of HDAC1 (unknown origin) using Boc-Lys (Ac)-AMC as substrate measured after 30 mins by fluorescence based analysis.
Experiment [10] has as its target T1, Histone deacetylase 1. In words: Inhibition of human recombinant HDAC1 expressed in baculovirus by using Boc-L-Lys(Ac)-AMC as substrate measured after 24 hrs by fluorescence based analysis.
Experiment [11] has as its target T2, Histone deacetylase 2. In words: Inhibition of human recombinant HDAC2 expressed in baculovirus by using Boc-L-Lys(Ac)-AMC as substrate measured after 24 hrs by fluorescence based analysis.
For experiment [12], the target named is T3, Histone deacetylase 3. The experiment in a line: Inhibition of human recombinant HDAC3 expressed in baculovirus by using Boc-L-Lys(Ac)-AMC as substrate measured after 24 hrs by fluorescence based analysis.
The next experiment concerns the target T4, Histone deacetylase 8 (Homo sapiens, UniProt Q9BY41).
T4 sequence (Q9BY41 whole entry): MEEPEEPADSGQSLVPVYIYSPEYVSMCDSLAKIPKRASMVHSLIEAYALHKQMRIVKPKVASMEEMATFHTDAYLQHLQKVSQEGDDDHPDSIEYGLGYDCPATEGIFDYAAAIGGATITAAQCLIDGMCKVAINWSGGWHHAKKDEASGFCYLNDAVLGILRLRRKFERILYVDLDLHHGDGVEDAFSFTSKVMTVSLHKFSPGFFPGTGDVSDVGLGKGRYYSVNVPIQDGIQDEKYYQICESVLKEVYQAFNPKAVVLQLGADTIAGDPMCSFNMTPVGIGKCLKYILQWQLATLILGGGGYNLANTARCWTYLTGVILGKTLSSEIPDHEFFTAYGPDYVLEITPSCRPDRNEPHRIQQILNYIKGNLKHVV
The experiment in a line: Inhibition of human recombinant HDAC8 expressed in Escherichia coli BL21 (DE3) cells by using Boc-L-Lys(Ac)-AMC as substrate measured after 24 hrs by fluorescence based analysis.

For experiment [13], the target named is T3, Histone deacetylase 3. In words: Inhibition of HDAC3 (unknown origin).
For experiment [14], the target named is T1, Histone deacetylase 1. In words: Inhibition of HDAC1 (unknown origin).
Experiment [15] addresses T2, Histone deacetylase 2. In words: Inhibition of HDAC2 (unknown origin).

As a reminder, the IC50 is the concentration that gives 50% inhibition.

T1 sequence (Q13547 whole entry): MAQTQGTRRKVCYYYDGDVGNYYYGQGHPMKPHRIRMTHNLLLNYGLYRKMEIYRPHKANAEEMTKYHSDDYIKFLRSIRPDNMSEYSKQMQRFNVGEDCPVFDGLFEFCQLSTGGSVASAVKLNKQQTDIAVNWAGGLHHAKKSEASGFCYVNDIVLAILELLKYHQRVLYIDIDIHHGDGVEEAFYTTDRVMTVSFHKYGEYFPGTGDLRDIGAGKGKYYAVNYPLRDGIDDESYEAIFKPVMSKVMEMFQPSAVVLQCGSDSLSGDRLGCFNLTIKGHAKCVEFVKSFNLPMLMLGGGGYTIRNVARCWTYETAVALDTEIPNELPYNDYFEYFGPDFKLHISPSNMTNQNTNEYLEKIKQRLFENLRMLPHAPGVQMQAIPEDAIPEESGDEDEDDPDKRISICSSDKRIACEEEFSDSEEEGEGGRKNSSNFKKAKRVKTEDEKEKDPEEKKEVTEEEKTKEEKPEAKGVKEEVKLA

For `Cc1noc(C)c1-c1ccc2c(c1)c(CCc1ccc(F)cc1)cn2CCCCCC(=O)NO`, the concentration for half-maximal inhibition (IC50) on Histone deacetylase 1 [1] turned out to be 259 nM; against Histone deacetylase 2 [2] it was 946 nM; against Histone deacetylase 3 [3] it was 17 nM.
As for `Cc1ccccc1CCc1cn(CCCCCC(=O)NO)c2ccc(-c3c(C)noc3C)cc12`, the figures for the IC50 on Histone deacetylase 1 [1], on Histone deacetylase 2 [2] and against Histone deacetylase 3 [3] were 314 nM, above 1000 nM and 62 nM, respectively.
The matching figures for `Cc1noc(C)c1-c1ccc2c(c1)c(CCc1ccccc1)cn2CCCCCCC(=O)NO`: 240 nM, 139 nM and 28 nM.
On to `Cc1cccc(Cc2cn(CCCCCC(=O)NO)c3ccc(-c4c(C)noc4C)cc23)c1`, for which the IC50 was 222 nM on Histone deacetylase 1 [1], 568 nM on Histone deacetylase 2 [2] and 62 nM against Histone deacetylase 3 [3].
Regarding `CN(C)c1cccc2c(S(=O)(=O)N[C@H](C(=O)Nc3ccc(C(=O)NO)cc3)c3ccccc3)cccc12`, the half-inhibitory concentration (IC50) against Histone deacetylase came out at 9.7 nM; at Histone deacetylase 1 [4] it was 24.7 nM; against Histone deacetylase 3 [5] it was 24.4 nM.
Take `CCCCNNC(=O)c1ccccc1`: the IC50 on Histone deacetylase 1 [6], at Histone deacetylase 2 [7] and on Histone deacetylase 3 [8] was above 50000 nM in each case.
Molecule `COC(=O)/C=C/c1ccc(OCCCCNc2cc3c([nH]c4ccccc43)c(-c3ccc(OC)cc3)n2)c(OC)c1` gave a 50% inhibitory concentration (IC50) against Histone deacetylase 1 [9] of 61 nM.
As to `Cc1ccccc1Cc1cn(CCCCCCC(=O)NO)c2ccc(-c3c(C)noc3C)cc12`, the results for the 50% inhibitory concentration (IC50) against Histone deacetylase 1 [1], at Histone deacetylase 2 [2] and at Histone deacetylase 3 [3] were 220 nM, above 1000 nM and 50 nM, respectively.
In the case of `Cc1noc(C)c1-c1ccc2c(c1)c(Cc1ccccc1)cn2CCCCCCC(=O)NO`, the concentration for half-maximal inhibition (IC50) against Histone deacetylase 1 [1] was determined as 179 nM; against Histone deacetylase 2 [2] it was 118 nM; at Histone deacetylase 3 [3], 23 nM.
In the case of `Cc1cccc(Cc2cn(CCCCCCC(=O)NO)c3ccc(-c4c(C)noc4C)cc23)c1`, the figures for the IC50 against Histone deacetylase 1 [1], against Histone deacetylase 2 [2] and against Histone deacetylase 3 [3] were 253 nM, 127 nM and 24 nM, respectively.
For `O=C(CCCCCCNCc1ccc(F)cc1)NO`, the half-maximal inhibitory concentration (IC50) at Histone deacetylase 1 [10] is 220 nM; at Histone deacetylase 2 [11], 1500 nM; on Histone deacetylase 3 [12], 240 nM; on Histone deacetylase 8, 1700 nM.
The matching figures for `O=C(CCCCCCN(Cc1cc2ccccc2[nH]1)Cc1cc2ccccc2[nH]1)NO`: 340 nM, 3700 nM, 1300 nM and 4600 nM.
For `Cc1ccc(Cc2cn(CCCCCCC(=O)NO)c3ccc(-c4c(C)noc4C)cc23)cc1`, the figures for the concentration for half-maximal inhibition (IC50) at Histone deacetylase 1 [1], on Histone deacetylase 2 [2] and at Histone deacetylase 3 [3] were 431 nM, 438 nM and 18 nM, respectively.
Turning to `O=C(CCCCCCNCc1ccc([N+](=O)[O-])cc1)NO`, the 50% inhibitory concentration (IC50) at Histone deacetylase 1 [10] came to 220 nM; at Histone deacetylase 2 [11], 2900 nM; at Histone deacetylase 3 [12], 1000 nM; at Histone deacetylase 8 it was 2100 nM.
`O=C(NO)c1ccc(NC(=O)[C@@H](NC(=O)c2ccc3ccccc3c2)c2ccccc2)cc1`: the IC50 was 14.3 nM against Histone deacetylase and 16.8 nM against Histone deacetylase 3 [5].
In the case of `CCC(=O)CCCCC[C@H](NC(=O)N1CCOCC1)c1ncc(-c2cc3ccccc3nc2OC)o1`, inhibition against Histone deacetylase 3 [13] was half-maximal at 7 nM (IC50).
With `Cc1cc(CNCCCCCCC(=O)NO)ccc1F`, the half-inhibitory concentration (IC50) on Histone deacetylase 1 [10] was 140 nM; on Histone deacetylase 2 [11], 790 nM; on Histone deacetylase 3 [12], 190 nM; on Histone deacetylase 8, 2800 nM.
Consider `O=C(NNCCCC1CCCC1)c1ccc(Br)cc1`, for which the concentration for half-maximal inhibition (IC50) on Histone deacetylase 1 [6], against Histone deacetylase 2 [7] and on Histone deacetylase 3 [8] was above 50000 nM each time.
For `O=C(CCCCCCN(Cc1ccc(-c2ccccc2)s1)Cc1ccc(-c2ccccc2)s1)NO`, the 50% inhibitory concentration (IC50) at Histone deacetylase 1 [10] stood at 840 nM; at Histone deacetylase 2 [11] it was 3000 nM; at Histone deacetylase 3 [12], 1100 nM; at Histone deacetylase 8, 4100 nM.
With `CCC(=O)CCCCC[C@H](NC(=O)C(C)(C)N(C)C)c1ncc(-c2cc3ccccc3nc2OC)o1`, on Histone deacetylase 3 [13], half-maximal inhibition (IC50) was put at 0.6 nM.
In the case of `COc1ccc(CNCCCCCCC(=O)NO)cc1OC`, the IC50 on Histone deacetylase 1 [10] was determined as 210 nM; on Histone deacetylase 2 [11], 1800 nM; at Histone deacetylase 3 [12], 180 nM; on Histone deacetylase 8, 1800 nM.
As to `O=C(NO)c1ccc(NC(=O)[C@@H](NC(=O)c2ccc(Cl)cc2)c2ccccc2)cc1`, the IC50 on Histone deacetylase stood at 348.6 nM.
`O=C(CCCCCCNCc1ccc(-c2ccccc2)s1)NO`: the IC50 at Histone deacetylase 1 [10] stood at 48 nM; on Histone deacetylase 2 [11], 690 nM; on Histone deacetylase 3 [12], 38 nM; on Histone deacetylase 8, 550 nM.
Regarding `O=C(CCCCCCNCc1ccc2ccccc2c1)NO`, the IC50 at Histone deacetylase 1 [10] was 39 nM; at Histone deacetylase 2 [11], 320 nM; on Histone deacetylase 3 [12] it was 68 nM; at Histone deacetylase 8, 320 nM.
Take `O=C(NO)c1ccc(NC(=O)[C@@H](NC(=O)c2cccc(Br)c2)c2ccccc2)cc1`: the figures for the IC50 at Histone deacetylase, against Histone deacetylase 1 [4] and on Histone deacetylase 3 [5] were 13.7 nM, 11.8 nM and 8.5 nM, respectively.
For `Nc1ccccc1NC(=O)c1ccc(-c2cn(CCc3ccsc3)nn2)cc1`, the IC50 at Histone deacetylase 1 [14] is above 100000 nM; on Histone deacetylase 2 [15], above 19 nM.
Regarding `O=C(NNCCCc1ccccc1)c1ccc(Br)cc1`, the IC50 is above 50000 nM at Histone deacetylase 1 [6], above 50000 nM against Histone deacetylase 2 [7] and 24200 nM against Histone deacetylase 3 [8].
Regarding `O=C(CCCCCCN(Cc1ccc2ccccc2c1)Cc1ccc2ccccc2c1)NO`, the IC50 on Histone deacetylase 1 [10] was 1100 nM; on Histone deacetylase 2 [11], 4200 nM; at Histone deacetylase 3 [12], 950 nM; on Histone deacetylase 8 it was 5400 nM.
Regarding `Cc1noc(C)c1-c1ccc2c(c1)c(Cc1ccc(F)cc1)cn2CCCCCC(=O)NO`, the half-inhibitory concentration (IC50) against Histone deacetylase 1 [1] worked out at 341 nM; at Histone deacetylase 2 [2] it was 517 nM; on Histone deacetylase 3 [3], 39 nM.
Consider `Cc1noc(C)c1-c1ccc2c(c1)c(Cc1ccc(F)cc1)cn2CCCCCCC(=O)NO`, for which the concentration for half-maximal inhibition (IC50) on Histone deacetylase 1 [1] is 181 nM; against Histone deacetylase 2 [2], 298 nM.
With `O=C(CCCCCCNCc1cc2ccccc2[nH]1)NO`, the IC50 at Histone deacetylase 1 [10] stood at 61 nM; at Histone deacetylase 2 [11], 260 nM; on Histone deacetylase 3 [12], 25 nM; at Histone deacetylase 8 it was 620 nM.
In turn, `Nc1ccccc1NC(=O)c1ccc(-c2cn(CCc3cccc([N+](=O)[O-])c3)nn2)s1` registered an IC50 against Histone deacetylase 2 [15] above 100 nM.
On to `Cc1noc(C)c1-c1ccc2c(c1)c(Cc1cccc(C(F)(F)F)c1)cn2CCCCCCC(=O)NO`, for which the values for the concentration for half-maximal inhibition (IC50) on Histone deacetylase 1 [1], against Histone deacetylase 2 [2] and against Histone deacetylase 3 [3] were 31 nM, 79 nM and 13 nM, respectively.
The molecule `O=C(NO)c1ccc(NC(=O)[C@@H](NS(=O)(=O)c2cccc3ccccc23)c2ccccc2)cc1` returned a half-inhibitory concentration (IC50) at Histone deacetylase of 15.6 nM.

The values above are taken from ChEMBL document CHEMBL5233233, “Histone deacetylase 3 (HDAC3) inhibitors as anticancer agents: A review” (Eur J Med Chem, 2020).
